Source: patent US12649750B2, “Macrocyclic compounds, compositions, and methods of using thereof” (Sionna Therapeutics Inc., priority 2022, dated 2026)

Assays:
CFTR = target: T1, CFTR (Homo sapiens, UniProt P13569, DEL508-508); assay: TECC24 AUC fold over DMSO @10 μM, CFTR-mediated transepithelial chloride transport in CF-HBE cells; format: cell-based; settings: test agent AUC divided by DMSO vehicle AUC, primary CF-HBE cells, ΔF508 homozygous donor, 48 hours incubation
T1 construct: Primary human bronchial epithelial cells from a ΔF508 homozygous CF donor; host or cells: primary human bronchial epithelial cells (CF-HBE), ΔF508 homozygous donor
T1 sequence (P13569 with tags, fused parts or gaps DEL508-508): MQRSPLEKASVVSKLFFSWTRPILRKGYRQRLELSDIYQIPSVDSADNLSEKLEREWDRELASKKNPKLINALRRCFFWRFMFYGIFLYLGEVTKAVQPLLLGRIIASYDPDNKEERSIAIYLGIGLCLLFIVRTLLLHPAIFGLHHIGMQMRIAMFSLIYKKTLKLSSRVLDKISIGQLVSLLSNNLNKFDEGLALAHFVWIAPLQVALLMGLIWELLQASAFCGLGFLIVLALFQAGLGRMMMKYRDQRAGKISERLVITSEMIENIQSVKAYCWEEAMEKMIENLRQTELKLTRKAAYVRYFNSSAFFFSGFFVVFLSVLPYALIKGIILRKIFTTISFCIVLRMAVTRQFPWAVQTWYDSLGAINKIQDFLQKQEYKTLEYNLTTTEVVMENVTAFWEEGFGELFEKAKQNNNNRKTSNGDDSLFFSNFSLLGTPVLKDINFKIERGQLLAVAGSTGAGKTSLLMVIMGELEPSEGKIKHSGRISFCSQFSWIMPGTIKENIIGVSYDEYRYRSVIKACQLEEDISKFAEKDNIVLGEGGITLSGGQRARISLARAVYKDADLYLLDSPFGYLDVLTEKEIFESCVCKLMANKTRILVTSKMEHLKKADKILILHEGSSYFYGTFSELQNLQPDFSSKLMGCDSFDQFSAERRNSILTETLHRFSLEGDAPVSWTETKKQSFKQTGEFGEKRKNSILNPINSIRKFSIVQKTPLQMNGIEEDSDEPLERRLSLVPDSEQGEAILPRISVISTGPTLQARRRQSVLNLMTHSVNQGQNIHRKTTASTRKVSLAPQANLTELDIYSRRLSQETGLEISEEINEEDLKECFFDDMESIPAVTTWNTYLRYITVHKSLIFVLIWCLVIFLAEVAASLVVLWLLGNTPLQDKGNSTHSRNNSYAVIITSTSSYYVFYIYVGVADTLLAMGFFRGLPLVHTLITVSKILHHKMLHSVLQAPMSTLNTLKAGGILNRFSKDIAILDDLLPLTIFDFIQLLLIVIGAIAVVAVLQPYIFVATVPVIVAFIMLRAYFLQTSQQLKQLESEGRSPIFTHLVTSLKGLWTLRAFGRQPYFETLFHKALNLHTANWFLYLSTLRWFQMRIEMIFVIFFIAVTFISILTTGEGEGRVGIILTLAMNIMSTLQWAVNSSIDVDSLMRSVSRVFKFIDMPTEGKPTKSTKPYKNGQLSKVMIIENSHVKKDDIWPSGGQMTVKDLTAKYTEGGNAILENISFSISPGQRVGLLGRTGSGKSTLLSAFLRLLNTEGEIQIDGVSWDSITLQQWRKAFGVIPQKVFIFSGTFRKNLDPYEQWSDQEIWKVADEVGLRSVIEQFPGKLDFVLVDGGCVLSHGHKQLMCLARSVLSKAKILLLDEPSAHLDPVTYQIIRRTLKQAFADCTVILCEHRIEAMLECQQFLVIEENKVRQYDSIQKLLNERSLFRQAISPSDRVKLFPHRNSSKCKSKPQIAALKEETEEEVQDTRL
In short: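 Primary ΔF508-homozygous CF bronchial epithelial cells on inserts were incubated 48 h at 36.5 °C with compound in IL-13-containing medium. VT and TEER were then recorded in current-clamp mode (pH 7.4 HEPES bath) with benzamil 10 μM, forskolin 10 μM, then CFTR inhibitor-172 20 μM. The IEQ AUC between forskolin and inhibitor was divided by vehicle AUC.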

NBD1 = target: T2, NBD1 (Homo sapiens, UniProt P13569); assay: Aggregation analysis using differential static light scattering (DSLS), thermal stability of NBD1 (ΔTagg); format: binding; settings: ΔTagg versus DMSO control, NBD1 0.2 mg/ml
T2 construct: Purified recombinant NBD1 was produced using previously described methods; made in house
T2 sequence (P13569 423-646 limits assumed): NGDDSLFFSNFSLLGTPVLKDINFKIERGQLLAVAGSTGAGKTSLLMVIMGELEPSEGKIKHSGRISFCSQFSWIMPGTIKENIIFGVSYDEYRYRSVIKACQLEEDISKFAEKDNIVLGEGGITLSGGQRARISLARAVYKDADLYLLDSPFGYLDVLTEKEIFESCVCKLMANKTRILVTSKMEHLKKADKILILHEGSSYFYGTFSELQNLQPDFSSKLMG
In short: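 Purified recombinant NBD1 at 0.2 mg/ml in Tris buffer pH7.6 with 2 mM ATP, 5 mM MgCl2, 2 mM DTT and 1% glycerol was mixed with DMSO-dissolved compounds under mineral oil. Plates were heated at 1° C. per minute to 70° C., light scattering imaged every 0.5° C.; Tagg from curve inflection, minus DMSO-control mean.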

| SMILES | TECC (AUC, 10 μM) (CFTR) | DSLS 3D (100 μM ΔT) (NBD1) |
| --- | --- | --- |
| CC1(C)CCCC(c2cccc(CCC(=O)O)c2)n2ccc(n2)-c2cc(ccc2F)Oc2c(F)cc3[nH]cnc3c2CCS(=O)(=O)C1 (stereo not shown) [Compound 57, 3-[3-(22,28-Difluoro-10,10-dimethyl-12,12-dioxo-24-oxa-12λ6-thia-5,17,19,30-tetrazapentacyclo[23.3.1.12,5.015,23.016,20]triaconta-1(29),2(30),3,15,17,20,22,25,27-nonaen-6-yl)phenyl]propanoic Acid] | C (a value between 20 and 80 is marked “C”) | B (a value above 5 °C and less than or equal to 10 °C is marked “B”) |
| CC1(C)COCC(c2cccc(CCC(=O)O)c2)n2ccc(n2)-c2cc(ccc2F)Oc2c(F)cc3[nH]ccc3c2CCS(=O)(=O)C1 (stereo not shown) [Compound 58, 3-[3-(22,28-Difluoro-10,10-dimethyl-12,12-dioxo-8,24-dioxa-12λ6-thia-5,19,30-triazapentacyclo[23.3.1.12,5.015,23.016,20]triaconta-1(29),2(30),3,15,17,20,22,25,27-nonaen-6-yl)phenyl]propanoic Acid] | B (a value between 12-20 is marked “B”) | C (a value greater than 10 °C and less than or equal to 25 °C is marked “C”) |
| CC1(C)COCCC(c2cccc(CCC(=O)O)c2)n2ccc(n2)-c2cc(ccc2F)Oc2c(F)cc3[nH]ccc3c2CS(=O)(=O)C1 (stereo not shown) [Compound 59, 3-[3-(22,28-Difluoro-11,11-dimethyl-13,13-dioxo-9,24-dioxa-13λ6-thia-5,19,30-triazapentacyclo[23.3.1.12,5.015,23.016,20]triaconta-1(29),2(30),3,15,17,20,22,25,27-nonaen-6-yl)phenyl]propanoic Acid] | C (a value between 20 and 80 is marked “C”) | C (a value greater than 10 °C and less than or equal to 25 °C is marked “C”) |
| CC1(C)COCCC(c2cccc(CCC(=O)O)c2)n2nccc2-c2cc(ccc2F)Oc2c(F)cc3[nH]ccc3c2CS(=O)(=O)C1 (stereo not shown) [Compound 60, 3-[3-(23,29-Difluoro-12,12-dimethyl-14,14-dioxo-10,25-dioxa-14λ6-thia-5,6,20-triazapentacyclo[24.3.1.02,6.016,24.017,21]triaconta-1(30),2,4,16,18,21,23,26,28-nonaen-7-yl)phenyl]propanoic Acid] | A (a TECC value less than 12 is marked “A”) | A (an ΔTagg value less than or equal to 5 °C is marked “A”) |
| Cn1cc2nc1-c1cc(ccc1F)Oc1c(F)cc3[nH]ccc3c1CCS(=O)(=O)CC(C)(C)CCCC2(C)c1cccc(CC(=O)O)c1 (stereo not shown) [Compound 61, 2-[3-(22,28-Difluoro-3,6,10,10-tetramethyl-12,12-dioxo-24-oxa-12lambda6-thia-3,19,30-triazapentacyclo[23.3.1.12,5.015,23.016,20]triaconta-1(29),2(30),4,15,17,20,22,25,27-nonaen-6-yl)phenyl]acetic Acid] | B (a value between 12-20 is marked “B”) | C (a value greater than 10 °C and less than or equal to 25 °C is marked “C”) |
| CCn1nc2nc1-c1cc(ccc1F)Oc1c(F)cc3[nH]ccc3c1CCS(=O)(=O)CC(C)(C)CCCC2c1cccc(CCC(=O)O)c1 (stereo not shown) [Compound 62, 3-[3-(3-Ethyl-22,28-difluoro-10,10-dimethyl-12,12-dioxo-24-oxa-12λ6-thia-3,4,19,30-tetrazapentacyclo[23.3.1.12,5.015,23.016,20]triaconta-1(29),2(30),4,15,17,20,22,25,27-nonaen-6-yl)phenyl]propanoic Acid] | C (a value between 20 and 80 is marked “C”) | C (a value greater than 10 °C and less than or equal to 25 °C is marked “C”) |
| Cn1nc2nc1-c1cc(ccc1F)Oc1c(F)cc3[nH]ccc3c1CCS(=O)(=O)CC(C)(C)CCCC2(C)c1cccc(CCCO)c1 (stereo not shown) [Compound 64, 3-[3-(22,28-Difluoro-3,6,10,10-tetramethyl-12,12-dioxo-24-oxa-12λ6-thia-3,4,19,30-tetrazapentacyclo[23.3.1.12,5.015,23.016,20]triaconta-1(29),2(30),4,15,17,20,22,25,27-nonaen-6-yl)phenyl]propan-1-ol] | B (a value between 12-20 is marked “B”) | C (a value greater than 10 °C and less than or equal to 25 °C is marked “C”) |
| Cn1nc2nc1-c1cc(ccc1F)Oc1c(F)cc3[nH]ccc3c1CCS(=O)(=O)CC(C)(C)COCC2(C)c1cccc(CC(=O)O)c1 (stereo not shown) [Compound 69, 2-[3-(22,28-Difluoro-3,6,10,10-tetramethyl-12,12-dioxo-8,24-dioxa-12λ6-thia-3,4,19,30-tetrazapentacyclo[23.3.1.12,5.015,23.016,20]triaconta-1(29),2(30),4,15,17,20,22,25,27-nonaen-6-yl)phenyl]acetic Acid] | A (a TECC value less than 12 is marked “A”) | C (a value greater than 10 °C and less than or equal to 25 °C is marked “C”) |
| CC1(C)CCCC(c2cccc(CCC(=O)O)c2)n2cc(Cl)c(n2)-c2cc(ccc2F)Oc2c(F)cc3[nH]ccc3c2CCS(=O)(=O)C1 (stereo not shown) [Compound 70, 3-[3-(3-Chloro-22,28-difluoro-10,10-dimethyl-12,12-dioxo-24-oxa-12λ6-thia-5,19,30-triazapentacyclo[23.3.1.12,5.015,23.016,20]triaconta-1(29),2(30),3,15,17,20,22,25,27-nonaen-6-yl)phenyl]propanoic Acid] | A (a TECC value less than 12 is marked “A”) | C (a value greater than 10 °C and less than or equal to 25 °C is marked “C”) |
| CC1(C)CCCC(c2cccc(CCC(=O)O)c2)n2ncc(Cl)c2-c2cc(ccc2F)Oc2c(F)cc3[nH]ccc3c2CCS(=O)(=O)C1 (stereo not shown) [Compound 71, 3-[3-(3-Chloro-23,29-difluoro-11,11-dimethyl-13,13-dioxo-25-oxa-13λ6-thia-5,6,20-triazapentacyclo[24.3.1.02,6.016,24.017,21]triaconta-1(30),2,4,16,18,21,23,26,28-nonaen-7-yl)phenyl]propanoic Acid] | A (a TECC value less than 12 is marked “A”) | C (a value greater than 10 °C and less than or equal to 25 °C is marked “C”) |
| CC(C)n1nc2nc1C(C)(c1cccc(CCC(=O)O)c1)CCCC(C)(C)CS(=O)(=O)CCc1c(c(F)cc3[nH]ccc13)Oc1ccc(F)c-2c1 (stereo not shown) [Compound 74, 3-[3-(22,28-Difluoro-4-isopropyl-6,10,10-trimethyl-12,12-dioxo-24-oxa-12λ6-thia-3,4,19,30-tetrazapentacyclo-[23.3.1.12,5.015,23.016,20]triaconta-1(29),2,5(30),15,17,20,22,25,27-nonaen-6-yl)phenyl]propanoic acid] | A (a TECC value less than 12 is marked “A”) | C (a value greater than 10 °C and less than or equal to 25 °C is marked “C”) |
| CC(C)n1nc2nc1-c1cc(ccc1F)Oc1c(F)cc3[nH]ccc3c1CCS(=O)(=O)CC(C)(C)CCCC2(C)c1cccc(CCC(=O)O)c1 (stereo not shown) [Compound 75, 3-[3-(22,28-difluoro-3-isopropyl-6,10,10-trimethyl-12,12-dioxo-24-oxa-12λ6-thia-3,4,19,30-tetrazapentacyclo-[23.3.1.12,5.015,23.016,20]triaconta-1(29),2(30),4,15,17,20,22,25,27-nonaen-6-yl)phenyl]propanoic Acid] | A (a TECC value less than 12 is marked “A”) | C (a value greater than 10 °C and less than or equal to 25 °C is marked “C”) |
| Cc1cn2nc1-c1cc(ccc1F)Oc1c(F)cc3[nH]ccc3c1CCS(=O)(=O)CC(C)(C)COCCC2c1cccc(CCC(=O)O)c1 (stereo not shown) [Compound 76, 3-[3-(23,29-Difluoro-3,11,11-trimethyl-13,13-dioxo-9,25-dioxa-13λ6-thia-5,20,31-triazapentacyclo[24.3.1.12,5.016,24.017,21]hentriaconta-1(30),2(31),3,16,18,21,23,26,28-nonaen-6-yl)phenyl]propanoic Acid] | A (a TECC value less than 12 is marked “A”) | C (a value greater than 10 °C and less than or equal to 25 °C is marked “C”) |
| Cn1cc2nc1-c1cc(ccc1F)Oc1c(F)cc3[nH]ccc3c1CCS(=O)(=O)CC(C)(C)CCCC2(C)c1cccc(CCC(=O)O)c1 (stereo not shown) [Compound 77, 3-[3-(22,28-Difluoro-3,6,10,10-tetramethyl-12,12-dioxo-24-oxa-12λ6-thia-3,19,30-triazapentacyclo[23.3.1.12,5.015,23.016,20]triaconta-1(29),2(30),4,15,17,20,22,25,27-nonaen-6-yl)phenyl]propanoic Acid] | A (a TECC value less than 12 is marked “A”) | C (a value greater than 10 °C and less than or equal to 25 °C is marked “C”) |
